Where two headings read alike, the source gives them in different places. Marks after values point to notes of the source that are not given here.
Assays:
mice [1] = assay: Amphetamine-induced hyperexcitability test of mice; format: in vivo, Kunming mice
Method: Forty Kunming mice, half males and half females, were fasted for 12 h but free to drink water. The mice were randomly divided into four groups: a blank control group, a low does Compound group (0.4 g/kg, ig), a high dose Compound group (0.8 g/kg, ig) and a positive drug control group (Estazolam, 2 mg/kg). The mice were placed into the YLS-1A multifunctional recorder for spontaneous activities of small animals. After 5 minutes of adaptation, the number of the mice's spontaneous activities before administration were recorded, and the recording lasted for 10 minutes. The room was kept quiet during recording, at a room temperature of 20-24° C. After this, each group of mice was administered according to the above doses, and the blank control group was given the same volume of normal saline (ig). Thirty minutes after administration, each mouse was given an intraperitoneal injection of amphetamine (8 mg/kg). Fifteen minutes later, the mice were placed in the recorder to observe and record the number of activities within 10 min.

mice [2] = assay: Sleeping duration induced by a threshold dose of pentobarbital sodium; format: in vivo, Kunming mice; conditions: for Sleeping duration: pentobarbital sodium 50 mg/kg ip
Method: Forty Kunming mice, half males and half females, were fasted for 12 h but free to drink water. The mice were randomly divided into four groups: a blank control group, a low does Compound group (0.4 g/kg, ig), a high dose Compound group (0.8 g/kg, ig) and a positive drug control group (Estazolam, 2 mg/kg). each group of mice was administered according to the above doses (ig), and the blank control group was given the same volume of normal saline. Forty-five minutes later, each mouse was given (ip) 50 mg/kg pentobarbital sodium, and then the sleeping duration of each group of mice was recorded (taking the disappear of righting reflex after administration as the indicator of falling asleep, and the recovery of righting reflex as the end time of the sleep).

mice [3] = conditions: mouse, in vivo; for Duration of mice staying in companion box: both, Kunming
Description: A conditioned place preference box was composed of black and white cuboids (30 cm×15 cm×15 cm), a movable partition plate is arranged in the middle of the box body to divide the box into two cuboids of the same volume, and the rat and mice can freely move from one cuboid to another when the partition plate is removed. Inner surfaces of one cuboid of the box body except the glass panel is painted black, the bottom plate is made to be a rough surface by using a soft blanket, the other cuboid of the box body except the glass surface is painted white, the bottom plate is made to be a smooth surface, and the whole experimental box has visual and tactile cues.
Mice were tested for natural preference one day prior to dosing to eliminate mice with significant preference on one side of the box and to exclude the effects of unconditioned place preference on the experimental results.
Each group of animals was administered twice daily at an interval of 8 hours (8:00, 16:00). […] The mice were placed in the white cuboid, which was the non-preferred side, after administration, and placed in the black cuboid, which was the preferred side, after administration of normal saline. The mice were kept in the box for 45 min, trained for 6 days. The place preference test was performed 24 h after the last administration. The partition plate of the preferred cuboid was removed, the mice were placed in the middle of the box one by one and observed for 15 minutes, and the duration of each of the mice staying in each cuboid was recorded on the basis of the positions of their heads.

rats = assay: Physical dependence test: induced withdrawal test for the rats; conditions: rat, in vivo
Method: The compound group was administered (ig) twice a day according to the dose increasing principle, at daily doses of 0.5, 1.0, 1.5, 2.0, 2.5, 3.0 g/kg. The dose was increased every day from 0.5 g/kg to 3.0 g/kg on day 6 which was adopted the same on day 7. The negative control group was given (ig) the same volume of vegetable oil per day at the same time and for the same times as the compound group. On day 8, the rats in each group were given naloxone (5 mg/kg, ip) to induce withdrawal, and the withdrawal status of the rats within 30 min and the weight change one hour before and after the inducement were observed. The evaluation criteria of withdrawal symptoms of rats were established by referring to the Tomoji Yanagita evaluation criteria and our pre-experimental results (see Appendix Table 17). The withdrawal scores and weight loss values of each group of rats were statistically processed. Weight loss value=weight before inducement−weight after inducement.

mice [4] = assay: Hot plate test of analgesic effect; format: in vivo, Kunming mice; conditions: for Pain threshold / Pain threshold before administration: hot plate 55° C.; for Pain threshold before administration: base line
Method: Kunming mice, female, were selected. And a selection among them was conducted prior to the test. The hot plate was adjusted to 55° C.±0.5° C., the female mice were placed on the hot plate, and the duration (in seconds) required from placing the mice on the hot plate until the mice licked their feet as the normal pain threshold of the mice. All those who licked their feet within 5 s or after 30 s and jumped were abandoned. Forty qualified mice were selected and randomly divided into 4 groups: a blank control group, a low dose Compound group, a high dose Compound group, and a positive control group, 10 mice per group. The normal pain threshold of each mouse was measured repeatedly, and the average of two measurements was taken as the pre-administration pain threshold of the mouse. Each group was then administered (at doses and by delivery routes as above), 0.2 ml per 10 g body weight. The pain threshold of each group was measured 60 min and 120 min after administration. If a mouse remained unresponsive for more than 60 seconds on the hot plate, its pain threshold was calculated as 60 seconds.

mice [5] = assay: Physical dependence test: induced withdrawal test for the mice; conditions: mouse, in vivo
Method: The daily doses were 25, 50, 75, 100, 125, 150 mg/kg according to the dose increasing principle, increased day by day, reached 150 mg/kg on day 6 which was adopted the same on day 7. The compound group was administered (ig) twice daily (8:00 am, 8:00 pm) at daily doses of 0.6, 1.2, 1.8, 2.4, 3.0, 3.6 g/kg. The dose increased every day from 0.6 g/kg to 3.6 g/kg on day 6 which was adopted the same on day 7. The negative control group was given (ig) the same volume of vegetable oil every day at the same time and for the same times as the compound group. On day 7, naloxone (8 mg/kg, ip) was given to each group of mice to induce withdrawal. The jump reaction within 30 min and weight change one hour before and after inducement were observed. Weight loss value=weight before inducement−weight after inducement.

mice [6] = assay: Morphine-induced hyperexcitability test of mice; format: in vivo, Kunming mice
[7] = Before administration, high dose group
[8] = Before administration, low dose group

CC1(C)O[C@H]2CC[C@@]3(C)[C@@H]([C@@H](O)[C@H](O)[C@@H]3[C@@](C)(O)CC[C@@H]3OC(C)(C)[C@H]4CC[C@]3(C)O4)[C@]2(C)CC[C@H]1O [the compound, limaxol A]
Effect on excitability induced by amphetamine (mice [1]; 0.4, 0.8 g/kg, ig): inhibit the increase of excitability induced by morphine and amphetamine
Number of activities, amphetamine-induced excitability (mice [1]; After administration, high dose 0.8 g/kg ig, amphetamine 8 mg/kg): 132.6 ± 26.26**^Δ▴▴ Times per min
Number of activities, amphetamine-induced excitability (mice [1]; After administration, low dose 0.4 g/kg ig, amphetamine 8 mg/kg): 130.6 ± 32.11**^Δ▴ Times per min
Number of activities, amphetamine-induced excitability (mice [1]; [7]): 197.4 ± 39.30 Times per min
Number of activities, amphetamine-induced excitability (mice [1]; [8]): 192.0 ± 45.06 Times per min
Effect on sleeping duration induced by pentobarbital sodium (mice [2]; 0.4, 0.8 g/kg, ig): significantly prolong the sleeping duration
Sleeping duration (mice [2]; high dose 0.8 g/kg ig): 32.8 ± 9.56*^ΔΔ min
Sleeping duration (mice [2]; low dose 0.4 g/kg ig): 39.5 ± 11.46**^Δ min
Duration of mice staying in companion box (mice [3]): 334.8 ± 94.96 s
Duration of mice staying in companion box (mice [3]; 6 days): 385.2 ± 188.16 s
Psychological dependence, place preference test (mice [3]): no tendency of psychological dependence
Withdrawal symptoms after administration of the compound, rats (rats): no obvious withdrawal symptoms
Pain threshold (mice [4]; 60 min, high dose 0.8 g/kg ig): 27.0 ± 11.32 s
Pain threshold (mice [4]; 60 min, low dose 0.4 g/kg ig): 25.4 ± 10.10 s
Pain threshold (mice [4]; 120 min, high dose 0.8 g/kg ig): 25.9 ± 12.52 s
Pain threshold (mice [4]; 120 min, low dose 0.4 g/kg ig): 29.3 ± 13.41 s
Pain threshold before administration (mice [4]; high dose group): 24.3 ± 5.51 s
Pain threshold before administration (mice [4]; low dose group): 23.7 ± 4.95 s
Analgesic effect, hot plate test (mice [4]; single administration 0.4, 0.8 g/kg, ig): no obvious analgesic effect
Behaviour of mice after administration (mice [5]): quiet without tail erecting reaction or excitatory movement
Withdrawal symptoms after administration of the compound, mice (mice [5]): no obvious withdrawal symptoms
Effect on excitability induced by morphine (mice [6]; 0.4, 0.8 g/kg, ig): inhibit the increase of excitability induced by morphine and amphetamine
Number of activities, morphine-induced excitability (mice [6]; After administration, high dose 0.8 g/kg ig, morphine 10 mg/kg): 112.7 ± 23.04**^Δ▴▴ Times per min
Number of activities, morphine-induced excitability (mice [6]; After administration, low dose 0.4 g/kg ig, morphine 10 mg/kg): 102.0 ± 46.29**^Δ▴ Times per min
Number of activities, morphine-induced excitability (mice [6]; [7]): 185.4 ± 36.93 Times per min
Number of activities, morphine-induced excitability (mice [6]; [8]): 191.5 ± 35.53 Times per min

— US11000555B2, “Method for preparing a limax compound and therapeutic use thereof” (GUANGXI JIUFU BIOTECHNOLOGY CO., LTD, priority 2017, dated 2021)
